Laboratory results: paper PMC8706998, “Lipid Nanocarriers-Loaded Nanocomposite as a Suitable Platform to Release Antibacterial and Antioxidant Agents for Immediate Dental Implant Placement Restorative Treatment” (Pharmaceutics, 2021)
Several values for one entry are separate records, joined by “and”; a condition that tells them apart may be missing. Identical values can stand only once.

Tests used:
[1] = CPX release study, dialysis tube method; type: physicochemical; conditions: from BioQ-CPX, citrate buffer pH 5.5 + acetic acid, after 1.5 h
Experimental: (§1) The system was submerged in 15 mL of the same medium; (b) Franz diffusion cells (Permeagear, flat flange joint, 9 mm orifice diameter, 15 mL acceptor volume, SES GmbH-Analysesysteme, Bechenheim, Germany) consisting in a donor chamber filled with 10 mg of powder and soaked with 0.5 mL of citrate buffer pH 5.5, and an acceptor chamber filled with 15 mL of the same medium plus glacial acetic acid 0.01% (v/v). A cellulose dialysis membrane (Medicell Membranes, London, UK: MWCO: 12–14,000 Da) previously soaked with the acceptor fluid, was inserted between the two compartments.
(§2) QRC release studies were carried out using a modified transwell permeable support (0.45 µm) filled with 5 mg of the BioQ-CPX powder and soaked with 0.2 mL of citrate buffer pH 5.5. The entire system was dipped inside a beaker filled with 8 mL of 1-octanol as a suitable acceptor fluid. […] The experiments were carried out at 37 ± 0.5 °C under constant stirring and protected by light exposure while, immediately after sampling, opportune volumes of fresh acceptor fluid were added to maintain the sink conditions. Data are reported as means ± SE (n = 6). Drug release profiles were elaborated using OriginPro 8.5 software and fitted with semi-empirical model equations. Fittings were validated by using R^2 value where a p-value of less than 0.05 was considered statistically significant.

[2] = CPX release study, Franz diffusion cell with cellulose membrane; type: physicochemical; conditions: CPX release from BioQ-CPX, data up to 9 h
Experimental: as §1, §2

[3] = Ex vivo permeation/penetration experiments in Franz-type cells; type: in vitro ADME, pig; conditions: from 30 mg BioQ-CPX
Experimental: Tissue specimens were obtained from the vestibular area of the retromolar trigone derived from 6–8-month-old pigs supplied by the Municipal Slaughterhouse of Villabate (Palermo, Italy) since withdrawn from animals intended for human consumption. By a refrigerated transport box, the specimens were immediately transferred to the laboratory within 1 h from animal sacrifice and surgically treated to remove both adipose and connective tissues in excess. Afterward, they were dipped for 30 min in a 5% THR (w/v) isotonic solution and then stored at −80 °C for a minimum period of one week. Before the permeation/penetration experiments, tissue samples were accurately washed to remove the cryoprotectant, and, subsequently, thermal shocked to obtain the buccal mucosa. Briefly, tissue samples were dipped for 30 s in a pre-warmed (70 °C) isotonic solution, and then the mucosa was carefully peeled off from the connective tissue, obtaining the heat-separated epithelium along with the intact basal lamina. Finally, it was equilibrated in an isotonic solution for 3 h by replacing the medium every 15 min to remove all the biological matter, which could affect the analysis, before use.
The ex vivo permeation/penetration studies were carried out using vertical Franz-type diffusion cells. Briefly, appropriate sections of buccal mucosa were mounted between the donor and the acceptor chambers filled with 1 mL of citrate buffer pH 5.5 and 15 mL of citrate buffer pH 5.5 amended with acetic acid 0.1% (v/v), Acys 0.002% (w/v), and β-CD 3% (w/v). The whole system was equilibrated at 37 ± 0.5 °C for 30 min. Afterward, the medium was removed from the donor compartment, promptly replaced with 30 mg of BioQ-CPX, and soaked with 0.2 mL of citrate buffer pH 5.5. Every 30 min, aliquots (0.5 mL) were withdrawn from the acceptor chamber and immediately replaced with the same volume of fresh acceptor fluid to maintain the sink conditions. Experiments were carried out at 37 ± 0.5 °C in the dark and under constant stirring, being stopped at different time points ranging from 1 to 6 h. The amount of permeated QRC and CPX were quantified by UV–Vis analysis. Data are reported as means ± SE (n = 6).
Briefly, the mucosa was dipped into 2 mL of methanol and warmed up to 60 °C. The extraction procedure was performed twice, and the collected extraction liquors were transferred into a 10 mL flask and brought to volume with fresh methanol. Thus, QRC and CPX amounts were determined by UV–Vis analysis. Results are reported as means ± SE.

[4] = tested on: Staphylococcus aureus ATCC 25923 strain, growing as planktonic cells; assay: Kill curve assay; type: cell-based; conditions: ca. 0.1 mg/mL CPX (highest amount in BioQ-CPX); data not shown
Experimental: Kill curve assays were performed to test the antimicrobial efficacy of BioQ-CPX, BioQ, and the Blank CTS matrix against the indicator pathogen Staphylococcus aureus ATCC 25923 strain, growing as planktonic cells. Briefly, a single colony of S. aureus strain was picked up and pre-cultivated (ca. 16 h) at 37 °C with shacking (160 rpm) in tryptone soy broth medium (hereinafter named as TSB; Merck, Milan, Italy). The same medium was solidified by adding 15 g/L of bacteriological agar when needed. Bacterial cells were then inoculated [0.05% v/v corresponding to ca. 5 × 10^5 colony forming units (CFU) per mL of culture] in TSB medium amended with increasing concentrations (i.e., 1, 2.5, and 5 mg/mL) of the above-mentioned samples. The set up bacterial cultures were challenged for 24 h according to the same pre-culturing conditions. The actual number of viable S. aureus CFU/mL—who survived the challenge exerted by BioQ-CPX, BioQ, and Blank matrix—was evaluated through the spot plate count method and compared to unchallenged cultures. The data are reported as average values (n = 3) of the CFU/mL in the logarithmic (Log10) scale with standard deviation (SD).

[5] = tested on: S. aureus cells growing as a biofilm; assay: Biofilm inhibition, crystal violet staining; type: cell-based, Staphylococcus aureus; conditions: 5 mg BioQ-CPX in 200 μL culture, CPX at the same concentration as in BioQ-CPX; 24 h, 37 °C
Experimental: Briefly, pre-cultivated S. aureus cells for 16 h at 37 °C were inoculated (1% v/v corresponding to ca. 1 × 10^7 CFU/mL) in TSB medium. The set-up culture was aliquoted (200 μL) in a 96-well microtiter plate. […] The microtiter plate was then incubated for 24 h at 37 °C under static mode, allowing for bacterial biofilm formation. After the incubation period, bacterial cultures have been disposed, while each well was washed 3 time with 200 μL of sterile physiological (NaCl 0.9% w/v) solution to remove loosely adherent cells. Then, S. aureus biofilms were stained by adding 200 μL of an aqueous crystal violet (0.1% w/v) solution at room temperature for 15 min. Subsequently, wells were washed 5 times with 200 μL of physiological solution to remove the excess of unbound crystal violet and left to dry for 20 min at 65 °C. Finally, crystal violet was solubilized by adding 200 μL of an acetic acid (30% v/v) solution, the absorbance (Abs) being read at 600 nm using a DU-730 Life Science spectrophotometer (Beckman Coulter, Brea, CA, USA). Unchallenged cultures were used as reference biofilms (positive control), while wells containing only the medium utilized in this study were used as a negative control. The percentage of biofilm inhibition was calculated as follows: Biofilm inhibition (%)=(Abs positive control−Abs challenge)/Abs positive control×100

O=C(O)c1cn(C2CC2)c2cc(N3CCNCC3)c(F)cc2c1=O [CPX, Ciprofloxacin]
CPX released [1]: 80%
Korsmeyer-Peppas n [2]: 0.8280 ± 0.0125 and 0.8280
Korsmeyer-Peppas with Tlag n [2]: 0.8293
First-Order k ([2]; time in hours): 0.1359
Korsmeyer-Peppas k ([2]; time in hours): 0.1134
Korsmeyer-Peppas with Tlag k ([2]; time in hours): 0.1113
Korsmeyer-Peppas with Tlag: Tlag ([2]; time in hours): −0.031
Zero-Order k ([2]; time in hours): 0.079
maximum amount accumulated into the mucosa ([3]; after 5 h): about 5 % of drugs dose
amount accumulated into the mucosa ([3]; first hour from application): about 4 % of dose
effect on bacterial growth [4]: did prevent bacterial growth
S. aureus biofilm formation inhibition [5]: ca. 55%
